≈ marks a conversion by molar mass, not a printed value. Like-named read-outs stand apart in the source and are kept apart here.
Key:
[1] = tested on: human foreskin fibroblast cells; assay: Toxicity run with the HCMV assay, human foreskin fibroblast cells; format: cell-based; conditions: Table II
Summary of the method: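 Human foreskin fibroblasts exposed to drug at 37 °C in CO2, either 72 h followed by Coulter Counter counts (triplicate counts, three replicate wells), or seven days followed by dye staining for 1 h and optical density at 550 nm.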

HCMV = HCMV semi-automated CPE-inhibition assay in human foreskin fibroblast cells; format: cell-based, human cytomegalovirus
2.2.15 cells = assay: Toxicity in 2.2.15 cells, neutral red dye uptake; format: cell-based, human; conditions: Table II, read-out: HBV IC50
Procedure: Cells of 2.2.15 were grown to confluence in 96-well flat-bottomed tissue culture plates and treated with compounds (in 0.2 mL culture medium/well) as described above. Four concentrations of each compound were assayed, each in triplicate cultures, in 3- to 10-fold steps. Untreated control cultures were maintained on each 96-well plate. On each 96-well plate, wells containing no cells were used to correct for light scattering.

measles = assay: Measles virus inhibition of viral CPE in BSC-1 cells; format: cell-based; conditions: for EC50: Table II footnote g, read-out: Others EC50, against measles
CEM-SS cells = assay: CEM-SS MTT assay, cytotoxicity (Table I); format: cell-based, human
[2] = tested on: African green monkey kidney (BSC-1) cells; assay: Cytotoxicity run with the measles assay
Source text: Virus strain: CC (Source: Pennsylvania State University) Cell line: African green monkey kidney (BSC-1) cells.

EBV = EBV assay: superinfection of Raji or Daudi cells with P3HR-1, immunofluorescence for EA and VCA; format: cell-based, Epstein-Barr virus
Summary of the method: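 Raji cells (Burkitt's lymphoma, 60 EBV genomes/cell) or Daudi cells were superinfected with P3HR-1 EBV, and drugs were added after 45 min adsorption at 37 °C and washing. After 48 h, smears were stained with monoclonal antibodies to EA components and VCA plus fluorescein anti-mouse Ig. Fluorescence-positive cells were counted to give total EA- or VCA-positive cells per culture.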

[3] = tested on: HCMV isolates Towne, AD169, E. Mann, Coffman, C9208; assay: Anti-CMV plaque reduction assay against various laboratory and clinical isolates (Example 40); format: cell-based, human cytomegalovirus

CCCc1cc(=O)oc2c3c(c4c(c12)OC(C)(C)C=C4)OC(C)C(C)C3=O (racemic) [(±)-7a]
HCMV IC50 [1]: 19.8 µg/mL
EC50 (HIV-1; CEM-SS MTT assay): 2.82 µM
Maximum Protection (%) (HIV-1; CEM-SS MTT assay): 55%
HCMV EC50 (HCMV; Table II): 0.15 µg/mL
IC50 (2.2.15 cells): 32 µM
EC50 (measles): 13.7 µM
IC50 (CEM-SS cells): 12 µM
IC50 ([2]; read-out: Others IC50, against measles, Table II footnote g): 333 µM
EBV EC50 (EBV; Table II): >50 µg/mL
EC50 ([3]; isolate AD169): 3.16 µM
EC50 ([3]; isolate C9208): 2.6 µM
EC50 ([3]; isolate Coffman): 3.16 µM
EC50 ([3]; isolate E. Mann): 3.16 µM
EC50 ([3]; isolate Towne): 3.08 µM

CCCc1cc(=O)oc2c3c(c4c(c12)OC(C)(C)C=C4)O[C@H](C)[C@@H](C)C3=O [(+)-7, 10(R),11(R)-trans-Dihydro6,6,10,11-tetramethyl-4-propyl-2H,6H,12H-benzo [1,2-b:3,4-b′:5,6-b″]tripyran-2,12-dione]
IC50 ([1]; Homo sapiens, Fibroblast): 47.9 µg/mL (≈ 130 µM)
Maximum Protection (%) (HIV-1; CEM-SS MTT assay): 90%
protecting cells against HIV infection (HIV-1; text summary of Table I): highly efficacious
EC50 (HCMV; Human betaherpesvirus 5, Fibroblast, Table II): 0.11 µg/mL (≈ 0.299 µM)
potency against HCMV (HCMV; text summary of Table II): very potent
IC50 (2.2.15 cells; Homo sapiens): 57 µM
EC50 (measles; Measles morbillivirus, BSC-1): 3 µM
potency against measles (measles; text summary of Table II): potent
IC50 (CEM-SS cells; Homo sapiens): 72.8 µM
IC50 ([2]; Chlorocebus sabaeus, BSC-1, read-out: Others IC50, against measles): 10 µM
EC50 (EBV; human gammaherpesvirus 4, Table II): 0.94 µg/mL (≈ 2.55 µM)
potency against EBV (EBV; text summary of Table II): very potent
EC50 ([3]; Human betaherpesvirus 5, AD169, isolate AD169): 3.16 µM
EC50 ([3]; Human betaherpesvirus 5, AD169, isolate C9208): 4.91 µM
EC50 ([3]; Human betaherpesvirus 5, AD169, isolate Coffman): 4.78 µM
EC50 ([3]; Human betaherpesvirus 5, AD169, isolate E. Mann): 4.65 µM
EC50 ([3]; Human betaherpesvirus 5, AD169, isolate Towne): 5.02 µM

Reference: US20020013478A1, “Calanolide analogues and methods of their use” (Sarawak Medichem Pharmaceuticals,Inc., priority 1994, published 2002)
